In PubChem BioAssay AID288 (DTP/NCI, 2004) one finds T/C data, which are given here for 13 compounds.

In this test the test system is BDF1 mice, M5076 sarcoma s.c., survival/tumor T/C. The experiment in a line: NCI In Vivo Anticancer Drug Screen. Data for tumor model Sarcoma M5076 (subcutaneous) in B6D2F1 (BDF1) mice. The protocol: The antitumor activity of compounds was measured in mice bearing transplantable tumors. Survival or tumor size were measured and the results are expressed as the measurement made in the treated group (T) divided by the measurement made in the vehicle treated control group (C). The tumor model used in this assay is Sarcoma M5076 (subcutaneous) in B6D2F1 (BDF1) mice

The mark [1] stands for this setting: endpoint: median survival time, dose: 50.0 mg/kg/injection, schedule: Q01DX009 (ip), vehicle: saline with Tween-80, higher = longer survival.
Setting [2] is: endpoint: median survival time, dose: 100.0 mg/kg/injection, schedule: Q01DX009 (ip), vehicle: saline with Tween-80, higher = longer survival.
Where [3] appears, read: endpoint: median survival time, dose: 200.0 mg/kg/injection, schedule: Q01DX009 (ip), vehicle: saline with Tween-80, higher = longer survival.
[4] abbreviates: endpoint: median tumor weight (est.), dose: 50.0 mg/kg/injection, schedule: Q01DX009 (ip), vehicle: saline with Tween-80, higher = larger tumour.
Setting [5] is: endpoint: median tumor weight (est.), dose: 100.0 mg/kg/injection, schedule: Q01DX009 (ip), vehicle: saline with Tween-80, higher = larger tumour.
[6] abbreviates: endpoint: median tumor weight (est.), dose: 200.0 mg/kg/injection, schedule: Q01DX009 (ip), vehicle: saline with Tween-80, higher = larger tumour.

Several values for one entry are separate records, joined by “and”; a condition that tells them apart may be missing. Equal entries are not always repeated. Records with an inconclusive call do not appear.

Turning to `COc1cc(COC(=O)Nc2ccccc2F)cc(OC)c1OC`, the T/C under setting [1] was 100 % of control; the T/C under setting [2] was 103 % of control; the T/C under setting [3] was 94 % of control; the T/C under setting [4] was 99 % of control; the T/C under setting [5] was 111 % of control; the T/C under setting [6] is 98 % of control.
As for `CC1CCC(NC(=O)N(CCF)N=O)CC1` (configuration not stated), the T/C reads like this: (endpoint: median survival time, dose: 30.0 mg/kg/injection, schedule: Q01DX003 (ip), vehicle: saline with Tween-80, higher = longer survival) 157 % of control; (endpoint: median survival time, dose: 50.0 mg/kg/injection, schedule: Q01DX001 (ip), vehicle: saline with Tween-80, higher = longer survival) 152 % of control.
Consider `CCC(NN)C(=O)OCc1ccccc1` (configuration not stated), for which the T/C is 107 % of control under setting [1]; 104 % of control under setting [2]; 104 % of control under setting [3]; 75 % of control under setting [4]; 103 % of control under setting [5]; 109 % of control under setting [6].
For the compound `Nc1nc(SCC(=O)O)[nH]c(=O)c1N`, the T/C by setting is: under setting [1], 93 % of control; under setting [2], 105 % of control; under setting [3], 110 % of control.
On to `C[CH2][Ge]1([CH2]C)[CH2]CC2(CCN(CCCN(C)C)C2)C[CH2]1`, for which the T/C (endpoint: mean tumor weight, dose: 12.5 mg/kg/injection, schedule: Q02DX011 (ip), vehicle: saline, higher = larger tumour) was 110 % of control; the T/C (endpoint: mean tumor weight, dose: 25.0 mg/kg/injection, schedule: Q02DX011 (ip), vehicle: saline, higher = larger tumour) was 79 % of control and 91 % of control; the T/C (endpoint: mean tumor weight, dose: 50.0 mg/kg/injection, schedule: Q02DX011 (ip), vehicle: saline, higher = larger tumour) is 107 % of control and 82 % of control; the T/C (endpoint: median tumor weight (est.), dose: 12.5 mg/kg/injection, schedule: Q02DX011 (ip), vehicle: saline, higher = larger tumour) was 94 % of control; the T/C (endpoint: median tumor weight (est.), dose: 25.0 mg/kg/injection, schedule: Q02DX011 (ip), vehicle: saline, higher = larger tumour) was 74 % of control; the T/C (endpoint: median tumor weight (est.), dose: 50.0 mg/kg/injection, schedule: Q02DX011 (ip), vehicle: saline, higher = larger tumour) is 74 % of control.
Take `COC1=C(C)C(=O)C2=C(C1=O)C(CO)N1C(C#N)C3CC4C(C1C2N1CCOC41)N3C` (configuration not stated): the T/C by setting is: (endpoint: median survival time, dose: 0.06 mg/kg/injection, schedule: Q01DX009 (ip), vehicle: saline + alcohol, higher = longer survival) 100 % of control; (endpoint: median survival time, dose: 0.13 mg/kg/injection, schedule: Q01DX009 (ip), vehicle: saline + alcohol, higher = longer survival) 96 % of control; (endpoint: median survival time, dose: 0.25 mg/kg/injection, schedule: Q01DX009 (ip), vehicle: saline + alcohol, higher = longer survival) 91 % of control; (endpoint: median survival time, dose: 0.5 mg/kg/injection, schedule: Q01DX009 (ip), vehicle: saline + alcohol, higher = longer survival) 106 % of control; (endpoint: median tumor weight (est.), dose: 0.06 mg/kg/injection, schedule: Q01DX009 (ip), vehicle: saline + alcohol, higher = larger tumour) 103 % of control; (endpoint: median tumor weight (est.), dose: 0.13 mg/kg/injection, schedule: Q01DX009 (ip), vehicle: saline + alcohol, higher = larger tumour) 153 % of control. The T/C reads like this: (endpoint: median tumor weight (est.), dose: 0.25 mg/kg/injection, schedule: Q01DX009 (ip), vehicle: saline + alcohol, higher = larger tumour) 95 % of control; (endpoint: median tumor weight (est.), dose: 0.5 mg/kg/injection, schedule: Q01DX009 (ip), vehicle: saline + alcohol, higher = larger tumour) 80 % of control.
As to `Nc1nc(=S)c2[nH]cnc2[nH]1`, the T/C runs as follows: (endpoint: mean tumor weight, dose: 0.5 mg/kg/injection, schedule: Q02DX011 (ip), vehicle: Klucel (hydroxypropylcellulose) (HPC), higher = larger tumour) 58 % of control; (endpoint: mean tumor weight, dose: 1.0 mg/kg/injection, schedule: Q02DX011 (ip), vehicle: Klucel (hydroxypropylcellulose) (HPC), higher = larger tumour) 16 % of control; (endpoint: mean tumor weight, dose: 2.0 mg/kg/injection, schedule: Q02DX011 (ip), vehicle: Klucel (hydroxypropylcellulose) (HPC), higher = larger tumour) 3 % of control.
In the case of `O=C(O)c1ccc(C(=O)O)c(C(=O)O)c1.[NH-]C1CCCCC1[NH-].[Pt+2]`, the T/C by setting is: (endpoint: median survival time, dose: 0.8 mg/kg/injection, schedule: Q01DX009 (ip), vehicle: sodium bicarbonate, higher = longer survival) 101 % of control; (endpoint: median survival time, dose: 1.5 mg/kg/injection, schedule: Q01DX009 (ip), vehicle: sodium bicarbonate, higher = longer survival) 104 % of control; (endpoint: median survival time, dose: 3.0 mg/kg/injection, schedule: Q01DX009 (ip), vehicle: sodium bicarbonate, higher = longer survival) 108 % of control; (endpoint: median survival time, dose: 6.0 mg/kg/injection, schedule: Q01DX009 (ip), vehicle: sodium bicarbonate, higher = longer survival) 112 % of control; (endpoint: median survival time, dose: 8.64 mg/kg/injection, schedule: Q04DX005 (ip), vehicle: sodium bicarbonate, higher = longer survival) 176 % of control; (endpoint: median survival time, dose: 14.4 mg/kg/injection, schedule: Q04DX005 (ip), vehicle: sodium bicarbonate, higher = longer survival) 216 % of control. For the same compound, the T/C is, setting by setting: (endpoint: median tumor weight (est.), dose: 3.11 mg/kg/injection, schedule: Q04DX005 (ip), vehicle: sodium bicarbonate, higher = larger tumour) 14 % of control; (endpoint: median tumor weight (est.), dose: 5.18 mg/kg/injection, schedule: Q04DX005 (ip), vehicle: sodium bicarbonate, higher = larger tumour) 18 % of control.
With `CC/C(=C(/CC)c1ccc(O)cc1)c1ccc(O)cc1`, the T/C was 114 % of control (endpoint: mean tumor weight, dose: 7.5 mg/kg/injection, schedule: Q02DX011 (ip), vehicle: Klucel (hydroxypropylcellulose) (HPC), higher = larger tumour); 62 % of control and 87 % of control (endpoint: mean tumor weight, dose: 15.0 mg/kg/injection, schedule: Q02DX011 (ip), vehicle: Klucel (hydroxypropylcellulose) (HPC), higher = larger tumour); 55 % of control (endpoint: mean tumor weight, dose: 60.0 mg/kg/injection, schedule: Q02DX011 (ip), vehicle: Klucel (hydroxypropylcellulose) (HPC), higher = larger tumour); 88 % of control (endpoint: median tumor weight (est.), dose: 15.0 mg/kg/injection, schedule: Q02DX011 (ip), vehicle: Klucel (hydroxypropylcellulose) (HPC), higher = larger tumour); 66 % of control (endpoint: median tumor weight (est.), dose: 30.0 mg/kg/injection, schedule: Q02DX011 (ip), vehicle: Klucel (hydroxypropylcellulose) (HPC), higher = larger tumour); 28 % of control (endpoint: median tumor weight (est.), dose: 60.0 mg/kg/injection, schedule: Q02DX011 (ip), vehicle: Klucel (hydroxypropylcellulose) (HPC), higher = larger tumour).
For the compound `COc1cc(-c2ccc(NC(=O)NC3CC3)c(OC)c2)ccc1NC(=O)NC1CC1`, the T/C is 101 % of control under setting [1]; 93 % of control under setting [2]; 88 % of control under setting [3]; 101 % of control under setting [4]; 84 % of control under setting [5].
With `O=C(N/N=C\c1cc(Br)cc(Br)c1O)N/N=C/c1cc(Br)cc(Br)c1O`, the T/C was 111 % of control (endpoint: median survival time, dose: 200.0 mg/kg/injection, schedule: Q04DX003 (ip), vehicle: saline with Tween-80, higher = longer survival); 112 % of control (endpoint: median survival time, dose: 400.0 mg/kg/injection, schedule: Q04DX003 (ip), vehicle: saline with Tween-80, higher = longer survival); 97 % of control (endpoint: median survival time, dose: 800.0 mg/kg/injection, schedule: Q04DX003 (ip), vehicle: saline with Tween-80, higher = longer survival).
On to `CCC/C=C/C=C/C(=O)OC1/C(=C/C(=O)OC)CC2CC(C(C)O)OC(=O)CC(O)CC3CC(OC(C)=O)C(C)(C)C(O)(CC4C/C(=C/C(=O)OC)CC(/C=C/C(C)(C)C1(O)O2)O4)O3` (configuration not stated), for which the T/C was 100 % of control (endpoint: median survival time, dose: 5.0 micrograms/kg/injection, schedule: Q01DX009 (ip), vehicle: saline + Tween-80 + alcohol, higher = longer survival); 106 % of control (endpoint: median survival time, dose: 5.0 micrograms/kg/injection, schedule: Q01DX009 (ip), vehicle: saline + alcohol, higher = longer survival); 97 % of control (endpoint: median survival time, dose: 10.0 micrograms/kg/injection, schedule: Q01DX009 (ip), vehicle: saline + Tween-80 + alcohol, higher = longer survival); 96 % of control (endpoint: median survival time, dose: 10.0 micrograms/kg/injection, schedule: Q01DX009 (ip), vehicle: saline + alcohol, higher = longer survival); 111 % of control (endpoint: median survival time, dose: 20.0 micrograms/kg/injection, schedule: Q01DX009 (ip), vehicle: saline + Tween-80 + alcohol, higher = longer survival); 111 % of control (endpoint: median survival time, dose: 20.0 micrograms/kg/injection, schedule: Q01DX009 (ip), vehicle: saline + alcohol, higher = longer survival). The T/C was 103 % of control (endpoint: median survival time, dose: 80.0 micrograms/kg/injection, schedule: Q01DX009 (ip), vehicle: saline + Tween-80 + alcohol, higher = longer survival); 103 % of control (endpoint: median survival time, dose: 80.0 micrograms/kg/injection, schedule: Q01DX009 (ip), vehicle: saline + alcohol, higher = longer survival); 102 % of control (endpoint: median tumor weight (est.), dose: 5.0 micrograms/kg/injection, schedule: Q01DX009 (ip), vehicle: saline + Tween-80 + alcohol, higher = larger tumour); 198 % of control (endpoint: median tumor weight (est.), dose: 5.0 micrograms/kg/injection, schedule: Q01DX009 (ip), vehicle: saline + alcohol, higher = larger tumour); 89 % of control (endpoint: median tumor weight (est.), dose: 10.0 micrograms/kg/injection, schedule: Q01DX009 (ip), vehicle: saline + Tween-80 + alcohol, higher = larger tumour); 107 % of control (endpoint: median tumor weight (est.), dose: 10.0 micrograms/kg/injection, schedule: Q01DX009 (ip), vehicle: saline + alcohol, higher = larger tumour). The T/C runs as follows: (endpoint: median tumor weight (est.), dose: 20.0 micrograms/kg/injection, schedule: Q01DX009 (ip), vehicle: saline + Tween-80 + alcohol, higher = larger tumour) 83 % of control; (endpoint: median tumor weight (est.), dose: 20.0 micrograms/kg/injection, schedule: Q01DX009 (ip), vehicle: saline + alcohol, higher = larger tumour) 10 % of control; (endpoint: median tumor weight (est.), dose: 40.0 micrograms/kg/injection, schedule: Q01DX009 (ip), vehicle: saline + Tween-80 + alcohol, higher = larger tumour) 11 % of control.
Consider `CCOC(=O)c1ccc(N2C(=O)OC(C)(C)C2=O)cc1`, for which the T/C is, setting by setting: under setting [1], 108 % of control; under setting [2], 115 % of control; under setting [3], 95 % of control; under setting [4], 99 % of control; under setting [5], 97 % of control; under setting [6], 80 % of control.
